Data: patent publication US20150023989A1, “NEW ANTIBODY DRUG CONJUGATES (ADCS) AND THE USE THEREOF” (SEATTLE GENETICS, INC., priority 2011, published 2015)

Tests used:
[1] = tested on: tubulin; assay: Fluorescence-based microtubule polymerisation assay; format: biochemical; details: rate at 1 μM MMAF set at 100%
Description: Tubulin polymerization was investigated using the “Fluorescence-based Microtubule Polymerisation Assay Kit” from Cytoskeleton (Denver, Colo., USA; order number: BK011). With this assay, GTP is added to unpolymerized tubulin, allowing polymerization to take place spontaneously. The assay is based on the binding of the fluorophore 4′,6-diamidino-2-phenylindole (DAPI) to tubulin. Free and bound DAPI can be differentiated on the basis of different emission spectra.
In addition to the buffer control, paclitaxel, with a polymerization-increasing effect, and vinblastin, with a polymerization inhibiting effect, were run additionally as assay controls. Measurement was carried out using 96-well plates with a half base area. The kinetics of the tubulin polymerization were monitored in a Fluorimeter at 37° C. for 1 hour. The excitation wavelength was 355 nm, and emission was monitored at 460 nm. For the region of linear increase within the first 10 minutes, a calculation was made of the change in fluorescence per minute (ΔF/min), which represents the polymerization rate of the microtubuli. The potency of the test substances was quantified on the basis of their respective reduction of the polymerization rate. Table 6 below gives data for the influence of representative working examples on tubulin polymerization.

[2] = molecular target: T1, P-glycoprotein (P-gp) (Homo sapiens, UniProt P08183); assay: Flux assay for P-gp substrate properties in L-MDR1 cells; format: in vitro ADME; details: L-MDR1 cells (P-gp overexpressing LLC-PK1), 2 hours incubation
T1 construct: expressed in transfected cells; host or cells: LLC-PK1 (pig kidney) cells transfected with human MDR1 (L-MDR1)
Description: The substrate properties of a substance for P-gp (ABCB1) were determined by means of a flux assay using LLC-PK1 cells which overexpress P-gp (L-MDR1 cells) [A. H. Schinkel et al., J. Clin. Invest. 96, 1698-1705 (1995)]. For this purpose, the LLC-PK1 cells or L-MDR1 cells were cultured on 96-well filter plates for 3-4 days. For determination of the permeation, the respective test substance, alone or in the presence of an inhibitor (such as Ivermectin or Verapamil, for example), was applied in a HEPES buffer to the cells either apically (A) or basally (B) and incubated for 2 hours. After 0 hours and after 2 hours, samples were taken from the cis and trans compartments. The samples were separated by HPLC using reverse phase columns. The HPLC system was coupled via a Turbo Ion Spray Interface to a Triple Quadropole mass spectrometer API 3000 (Applied Biosystems Applera, Darmstadt, Germany). The permeability was evaluated on the basis of a Papp value which was calculated using the formula published by Schwab et al. [D. Schwab et al., J. Med. Chem. 46, 1716-1725 (2003)].
Table 8 below lists permeability data for representative working examples from this assay, which was carried out in L-MDR1 cells: […]

[3] = Flux assay using Caco-2 cells (cell permeability); format: in vitro ADME; details: human, 2 hours incubation
Description: The cell permeability of a substance can be investigated by means of in vitro testing in a flux assay using Caco-2 cells [M. D. Troutman and D. R. Thakker, Pharm. Res. 20 (8), 1210-1224 (2003)]. For this purpose, the cells were cultured for 15-16 days on 24-well filter plates. For the determination of permeation, the respective working example was applied in a HEPES buffer to the cells either apically (A) or basally (B) and incubated for 2 hours. After 0 hours and after 2 hours, samples were taken from the cis and trans compartments. The samples were separated by HPLC (Agilent 1200, Böblingen, Germany) using reverse phase columns. The HPLC system was coupled via a Turbo Ion Spray Interface to a Triple Quadropol mass spectrometer API 4000 (Applied Biosystems Applera, Darmstadt, Germany). The permeability was evaluated on the basis of a Papp value, which was calculated using the formula published by Schwab et al. [D. Schwab et al., J. Med. Chem. 46, 1716-1725 (2003)].

T1 sequence (P08183 whole entry): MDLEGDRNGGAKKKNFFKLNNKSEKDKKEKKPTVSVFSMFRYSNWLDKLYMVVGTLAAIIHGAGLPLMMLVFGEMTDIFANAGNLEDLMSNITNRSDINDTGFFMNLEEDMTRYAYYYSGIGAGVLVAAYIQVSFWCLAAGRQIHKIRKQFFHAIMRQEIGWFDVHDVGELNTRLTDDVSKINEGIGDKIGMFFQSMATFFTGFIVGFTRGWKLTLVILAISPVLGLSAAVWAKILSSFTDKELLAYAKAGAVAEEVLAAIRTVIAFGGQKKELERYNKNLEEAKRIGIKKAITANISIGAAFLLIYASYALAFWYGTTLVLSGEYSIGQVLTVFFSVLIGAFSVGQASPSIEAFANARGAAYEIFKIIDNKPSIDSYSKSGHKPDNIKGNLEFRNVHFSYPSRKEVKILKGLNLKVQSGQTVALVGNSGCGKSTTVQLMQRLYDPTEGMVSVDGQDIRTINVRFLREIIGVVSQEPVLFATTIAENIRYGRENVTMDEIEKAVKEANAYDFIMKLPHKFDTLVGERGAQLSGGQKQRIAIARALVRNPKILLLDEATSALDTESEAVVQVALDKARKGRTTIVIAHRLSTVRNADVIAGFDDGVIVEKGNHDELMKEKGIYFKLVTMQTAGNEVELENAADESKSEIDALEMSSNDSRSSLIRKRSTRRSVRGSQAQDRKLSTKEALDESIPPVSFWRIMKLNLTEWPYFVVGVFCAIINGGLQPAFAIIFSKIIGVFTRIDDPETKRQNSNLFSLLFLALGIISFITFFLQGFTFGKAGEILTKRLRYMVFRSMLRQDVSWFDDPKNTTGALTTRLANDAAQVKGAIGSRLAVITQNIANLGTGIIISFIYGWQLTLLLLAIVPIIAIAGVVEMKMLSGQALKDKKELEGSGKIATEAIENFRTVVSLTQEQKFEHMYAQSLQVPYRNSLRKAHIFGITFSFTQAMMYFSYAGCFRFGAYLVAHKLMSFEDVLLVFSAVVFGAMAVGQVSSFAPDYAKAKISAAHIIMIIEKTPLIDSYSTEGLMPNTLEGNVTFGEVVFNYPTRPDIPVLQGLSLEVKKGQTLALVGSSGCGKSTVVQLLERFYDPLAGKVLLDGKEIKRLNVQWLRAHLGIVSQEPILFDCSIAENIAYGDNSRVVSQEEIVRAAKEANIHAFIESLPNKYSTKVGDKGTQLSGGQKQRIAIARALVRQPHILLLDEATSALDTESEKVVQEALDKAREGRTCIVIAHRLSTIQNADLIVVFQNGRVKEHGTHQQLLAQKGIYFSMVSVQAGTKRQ

Structure (SMILES): CC[C@H](C)[C@@H]([C@@H](CC(=O)N1CCC[C@H]1[C@H](OC)[C@@H](C)C(=O)N[C@@H](Cc1c[nH]c2ccccc12)C(=O)O)OC)N(C)C(=O)[C@@H](NC(=O)[C@H](C(C)C)N(C)CCCC(=O)NNC(=O)CCCCCN1C(=O)CC(SC[C@H](N)C(=O)O)C1=O)C(C)C (stereo partly drawn) [Example 22, N-(4-{2-[6-(3-{[(2R)-2-Amino-2-carboxyethyl]sulphanyl}-2,5-dioxopyrrolidin-1-yl)hexanoyl]hydrazino}-4-oxobutyl)-N-methyl-L-valyl-N-[(3R,4S,5S)-1-{(2S)-2-[(1R,2R)-3-{[(1S)-1-carboxy-2-(1H-indol-3-yl)ethyl]amino}-1-methoxy-2-methyl-3-oxopropyl]pyrrolidin-1-yl}-3-methoxy-5-methyl-1-oxoheptan-4-yl]-N-methyl-L-valinamide]
- Tubulin polymerization in the presence of toxophore ([1]; toxophore 1 μM): 109%
- Tubulin polymerization in the presence of toxophore ([1]; toxophore 10 μM): 27%
- Papp (B-A) [2]: 0.4 ×10⁻⁶ cm/s
- Papp B→A at 2 h [3]: 0.2 ×10⁻⁶ cm/s
